“Also recorded” adds a separate entry of the source. Read-outs that look alike come from different tables or passages of the source.
Experiments:
Assay type in all cases: cell-based, human
HIF-1α–NanoLuc = HIF-1α–NanoLuc reporter gene assay (qHTS primary and confirmatory screens)
HRE–bla ME-180 cells = test: Viability (BLA): CellTiter-Glo counter screen in HRE–bla cells; conditions: Table S7, 1% O2, 18 h
Procedure: (§1) Cell culture of HRE–bla ME-180 cells (Cat. No. K1644, Life Technologies) and HRE–bla assay were conducted according to a reported protocol [6]. […] The fluorescence signals (460/25 nm and 530/20 nm) of CCF4 and luminescence signals of CellTiter-Glo were acquired on an Envision and a ViewLux plate readers (Perkin Elmer), respectively.

[1] = system: hypoxia response element-beta-lactamase (HRE–bla); test: HRE-bla reporter gene assay in ME-180 cells; conditions: for Emax / IC50: Homo sapiens, ME-180; for Emax: read-out: HRE–bla confirmatory Efficacy; for IC50: read-out: HRE–bla confirmatory IC50; for Effect on HRE–bla transcriptional activity, in words: ME-180 cells
Procedure: as §1

[2] = Homo sapiens, Table S1, primary screen, hypoxia 1% O2, 18 h, read-out: IC50 (primary screen, HIF-1α–NanoLuc assay)
[3] = Homo sapiens, Table S1, primary screen, read-out: Efficacy (primary screen, HIF-1α–NanoLuc assay)
[4] = Homo sapiens, 18 h, read-out: IC50 (primary screen, HIF-1α–NanoLuc assay)
[5] = Homo sapiens, read-out: Efficacy (primary screen, HIF-1α–NanoLuc assay)
[6] = Table S2, validation, read-out: Pathway inhibitors (validation) HIF-1α–NanoLuc Activity IC50
[7] = Homo sapiens, Table S2, validation, read-out: Pathway inhibitors (validation) HIF-1α–NanoLuc Activity Efficacy
[8] = Homo sapiens, Table S2, validation, read-out: Pathway inhibitors (validation) HIF-1α–NanoLuc Activity IC50

`COC(=O)C1=C(C)NC(C)=C(C(=O)OCCN2CCN(C(c3ccccc3)c3ccccc3)CC2)C1c1cccc([N+](=O)[O-])c1` (centres unmarked) [Manidipine] showed an IC50 (HIF-1α–NanoLuc; [2]) of 9.44 µM and an Emax (HIF-1α–NanoLuc; [3]) of 86%.

`COc1ccccc1N1CCN(CC(O)COc2cccc3ccccc23)CC1` (centres unmarked) [Naftopidil] was tested, and the “Viability (BLA) confirmatory IC50” value (HRE–bla ME-180 cells) was “Inactive” and the “HRE–bla confirmatory IC50” value ([1]; Table S7, confirmatory screen) was “Inactive”.

Work on `Cc1c(O)cccc1C(=O)N[C@@H](CSc1ccccc1)[C@H](O)CN1C[C@H]2CCCC[C@H]2C[C@H]1C(=O)NC(C)(C)C` [Nelfinavir] yielded an IC50 (HIF-1α–NanoLuc; [2]) of 21.1 µM and an Emax (HIF-1α–NanoLuc; [3]) of 120%.

In the case of `COc1cccc2c1C(=O)c1c(O)c3c(c(O)c1C2=O)C[C@@](O)(C(=O)CO)C[C@@H]3O[C@H]1C[C@H](N2CCO[C@H](OC)C2)[C@H](O)[C@H](C)O1` [Nemorubicin], the IC50 (HIF-1α–NanoLuc; [4]) is reported as 0.08 µM and the Emax (HIF-1α–NanoLuc; [5]) is reported as 111%.

For `COCCOC(=O)C1=C(C)NC(C)=C(C(=O)OC(C)C)C1c1cccc([N+](=O)[O-])c1` (centres unmarked) [Nimodipine], the IC50 (HIF-1α–NanoLuc; [2]) was 15 µM and the Emax (HIF-1α–NanoLuc; [3]) was 132%.

`CCOC(=O)C1=C(C)NC(C)=C(C(=O)OC)C1c1cccc([N+](=O)[O-])c1` (centres unmarked) [Nitrendipine] showed an IC50 (HIF-1α–NanoLuc; [2]) of 15 µM and an Emax (HIF-1α–NanoLuc; [3]) of 157%.

`C[C@]1(O)C[C@@H](c2nc(-c3ccc4ccc(-c5ccccc5)nc4c3)c3c(N)nccn32)C1` [OSI-906] showed an IC50 (HIF-1α–NanoLuc; Homo sapiens, HCT-116, HCT116 reporter cells, hypoxia, read-out: HIF-1α–NanoLuc IC50) of 6.23 ± 1.64 µM.

For `COc1cc([C@@H]2c3cc4c(cc3[C@H](O)[C@H]3COC(=O)[C@@H]23)OCO4)cc(OC)c1OC` [Picropodphyllin], the “Pathway inhibitors (primary screen) HIF-1α–NanoLuc Activity Efficacy” value (HIF-1α–NanoLuc; Table S2, primary screen) was 159%, the IC50 (HIF-1α–NanoLuc; Table S2, primary screen, read-out: Pathway inhibitors (primary screen) HIF-1α–NanoLuc Activity IC50) was 0.53 µM and the “Pathway inhibitors (validation) HIF-1α–NanoLuc Activity Efficacy” value (HIF-1α–NanoLuc; Table S2, validation) was 159%. For the same compound, the IC50 (HIF-1α–NanoLuc; [6]) was 0.53 µM.

Work on `COc1cccc2c1C(=O)c1c(O)c3c(c(O)c1C2=O)C[C@@](O)(C(=O)CO)C[C@@H]3O[C@H]1C[C@H](N)[C@H](O[C@@H]2CCCCO2)[C@H](C)O1` [Pirarubicin] yielded an IC50 (HIF-1α–NanoLuc; [2]) of 11.9 µM and an Emax (HIF-1α–NanoLuc; [3]) of 97%.

For `O=c1c(O)c(-c2ccc(O)c(O)c2)oc2cc(O)cc(O)c12` [Quercetine], the “Viability (BLA) confirmatory IC50” value (HRE–bla ME-180 cells) was “Inactive”, the Emax ([1]; Table S7, confirmatory screen) was 84 ± 10% and the IC50 ([1]; Table S7, confirmatory screen) was 12.8 ± 0.84 µM.

Work on `C=C(C)[C@H]1Cc2c(ccc3c2O[C@@H]2COc4cc(OC)c(OC)cc4[C@@H]2C3=O)O1` [Rotenone] yielded an IC50 (HIF-1α–NanoLuc; [4]) of 0.19 µM and an Emax (HIF-1α–NanoLuc; [5]) of 91%.

For `Cc1cc(C)c(/C=C2\C(=O)Nc3ccccc32)[nH]1` [SU-5416], the “Viability (BLA) confirmatory IC50” value (HRE–bla ME-180 cells) was “Inactive”, the Emax ([1]; Table S7, confirmatory screen) was 111 ± 12% and the IC50 ([1]; Table S7, confirmatory screen) was 12.8 ± 0.84 µM.

Work on `Cc1ccc(C(=O)Nc2ccc(S(=O)(=O)O)c3cc(S(=O)(=O)O)cc(S(=O)(=O)O)c23)cc1NC(=O)c1cccc(NC(=O)Nc2cccc(C(=O)Nc3cc(C(=O)Nc4ccc(S(=O)(=O)O)c5cc(S(=O)(=O)O)cc(S(=O)(=O)O)c45)ccc3C)c2)c1` [Suramin] yielded an Emax (HIF-1α–NanoLuc; [7]) of 41 ± 7% and an IC50 (HIF-1α–NanoLuc; [8]) of 24.5 ± 3.13 µM.

For `N#Cc1c(Oc2ccc(F)c(NC(=O)Cc3cccc(C(F)(F)F)c3)c2)ccc2nc(NC(=O)C3CC3)sc12` [TAK-632], the “Pathway inhibitors (validation) HIF-1α–NanoLuc Activity Efficacy” value (HIF-1α–NanoLuc; Table S2, validation) was 85 ± 2% and the IC50 (HIF-1α–NanoLuc; [6]) was 1.41 ± 0.23 µM.

In the case of `COC(=O)C1=C(C)NC(C)=C(C(=O)OCCc2ccc(N3CCN(C(c4ccccc4)c4ccccc4)CC3)cc2)C1c1cccc([N+](=O)[O-])c1` (centres unmarked) [Vatanidipine], the IC50 (HIF-1α–NanoLuc; [2]) is reported as 1.19 µM and the Emax (HIF-1α–NanoLuc; [3]) is reported as 103%.

`CC[C@@H]1C(=O)N(C)c2cnc(Nc3ccc(C(=O)N[C@H]4CC[C@H](N5CCN(CC6CC6)CC5)CC4)cc3OC)nc2N1C(C)C` [Volasertib] gave an Emax (HIF-1α–NanoLuc; [7]) of 78 ± 14% and an IC50 (HIF-1α–NanoLuc; [8]) of 9.57 ± 5.6 µM.

In the case of `O=C(CCCCCCC(=O)Nc1ccccc1)NO` [Vorinostat], the Emax (HIF-1α–NanoLuc; [3]) is reported as 51%.

In the case of `OCc1ccc(-c2nn(Cc3ccccc3)c3ccccc23)o1` [YC-1], the “Effect on HIF-1α–NanoLuc level / luciferase activity, in words” value (HIF-1α–NanoLuc; HCT116 reporter cells) is reported as “decrease in luciferase expression in a concentration response manner”.

`CC(C)C[C@H](NC(=O)[C@H](Cc1ccccc1)NC(=O)c1cnccn1)B(O)O` [bortezomib] was tested, and the “Effect on HRE–bla transcriptional activity, in words” value [1] was “inhibited the transcriptional activity of HRE–bla” and the “Effect on HIF-1α–NanoLuc level / luciferase activity, in words” value (HIF-1α–NanoLuc; HCT116 reporter cells) was “resulted in protein accumulation and increased luciferase activity; also recorded: potently induced accumulation of HIF-1α–NanoLuc proteins”.

For `CC(C)C[C@H](NC(=O)[C@H](CCc1ccccc1)NC(=O)CN1CCOCC1)C(=O)N[C@@H](Cc1ccccc1)C(=O)N[C@@H](CC(C)C)C(=O)[C@@]1(C)CO1` [carfilzomib], the “Effect on HRE–bla transcriptional activity, in words” value [1] was “inhibited the transcriptional activity of HRE–bla” and the “Effect on HIF-1α–NanoLuc level / luciferase activity, in words” value (HIF-1α–NanoLuc; HCT116 reporter cells) was “potently induced accumulation of HIF-1α–NanoLuc proteins”.

Reference: article PMC4884984, “Identification of approved and investigational drugs that inhibit hypoxia-inducible factor-1 signaling” (Oncotarget, 2016)
